Laboratory results: ChEMBL document CHEMBL4033663, “Design, combinatorial synthesis and biological evaluations of novel 3-amino-1'-((1-aryl-1H-1,2,3-triazol-5-yl)methyl)-2'-oxospiro[benzo[a] pyrano[2,3-c]phenazine-1,3'-indoline]-2-carbonitrile antitumor hybrid molecules” (Eur J Med Chem, 2017)

What was measured:
HepG2 = experiment: Antiproliferative activity against human HepG2 cells after 48 hrs by MTT assay; type: functional, cell-based; conditions: HepG2, 48 h
A549 = experiment: Antiproliferative activity against human A549 cells after 48 hrs by MTT assay; type: functional, cell-based; conditions: A549, 48 h
MCF7 = experiment: Antiproliferative activity against human MCF7 cells after 48 hrs by MTT assay; type: functional, cell-based; conditions: MCF7, 48 h
HCT-116 = experiment: Antiproliferative activity against human HCT116 cells after 48 hrs by MTT assay; type: functional, cell-based; conditions: HCT-116, 48 h
L02 = experiment: Antiproliferative activity against human L02 cells after 48 hrs by MTT assay; type: cell-based; conditions: L02, 48 h
HUVEC = experiment: Antiproliferative activity against human HUVEC cells after 48 hrs by MTT assay; type: cell-based

SMILES | IC50 (HepG2) [µM] | IC50 (A549) [µM] | IC50 (MCF7) [µM] | IC50 (HCT-116) [µM] | IC50 (L02) [µM] | IC50 (HUVEC) [µM]
COc1ccc(-n2nncc2CN2C(=O)C3(C(C#N)=C(N)Oc4c(N)cc5nc6ccccc6nc5c43)c3ccccc32)cc1 (stereo unspecified) | > 50 | > 50 | > 50 | > 50 | > 50 | > 50
Cc1ccc(-n2nncc2CN2C(=O)C3(C(C#N)=C(N)Oc4c3c3nc5ccccc5nc3c3ccccc43)c3ccccc32)cc1Cl (stereo unspecified) | > 50 | > 50 | > 50 | > 50 | > 50 | > 50
Cc1ccc(-n2nncc2CN2C(=O)C3(C(C#N)=C(N)Oc4c3c3nc5ccccc5nc3c3ccccc43)c3ccccc32)cc1C (stereo unspecified) | > 50 | > 50 | > 50 | > 50 | > 50 | > 50
N#CC1=C(N)Oc2c(c3nc4ccccc4nc3c3ccccc23)C12C(=O)N(Cc1cnnn1-c1ccc(Cl)c(Cl)c1)c1ccccc12 (stereo unspecified) | > 50 | > 50 | > 50 | > 50 | > 50 | > 50
Cc1cc(C)cc(-n2nncc2CN2C(=O)C3(C(C#N)=C(N)Oc4c3c3nc5ccccc5nc3c3ccccc43)c3ccccc32)c1 (stereo unspecified) | > 50 | > 50 | > 50 | > 50 | > 50 | > 50
N#CC1=C(N)Oc2c(c3nc4ccccc4nc3c3ccccc23)C12C(=O)N(Cc1cnnn1-c1ccc(Br)cc1)c1ccccc12 (stereo unspecified) | > 50 | 44.3 | 36.6 | > 50 | > 50 | > 50
Cc1ccc(Cl)cc1-n1nncc1CN1C(=O)C2(C(C#N)=C(N)Oc3c2c2nc4ccccc4nc2c2ccccc32)c2ccccc21 (stereo unspecified) | > 50 | > 50 | > 50 | > 50 | > 50 | > 50
Cc1ccc(-n2nncc2CN2C(=O)C3(C(C#N)=C(N)Oc4c(N)cc5nc6ccccc6nc5c43)c3ccccc32)cc1Cl (stereo unspecified) | > 50 | 11.8 | > 50 | > 50 | > 50 | > 50
N#CC1=C(N)Oc2c(c3nc4ccccc4nc3c3ccccc23)C12C(=O)N(Cc1cnnn1-c1cccc(Cl)c1)c1ccccc12 (stereo unspecified) | > 50 | 32.6 | 43.6 | > 50 | 35.2 | > 50
CC[C@@]1(O)C(=O)OCc2c1cc1n(c2=O)Cc2cc3cc(O)ccc3nc2-1 [HYDROXYCAMPTOTHECIN] | 10.3 | – | 2.8 | 3.2 | 20.4 | 18.2
Cc1cccc(-n2nncc2CN2C(=O)C3(C(C#N)=C(N)Oc4c3c3nc5ccccc5nc3c3ccccc43)c3ccccc32)c1 (stereo unspecified) | > 50 | 39.6 | > 50 | > 50 | > 50 | > 50
N#CC1=C(N)Oc2c(c3nc4ccccc4nc3c3ccccc23)C12C(=O)N(Cc1cnnn1-c1ccccc1Cl)c1ccccc12 (stereo unspecified) | > 50 | 42.6 | > 50 | > 50 | > 50 | > 50
N#CC1=C(N)Oc2c(c3nc4ccccc4nc3c3ccccc23)C12C(=O)N(Cc1cnnn1-c1cc(Cl)ccc1Cl)c1ccccc12 (stereo unspecified) | > 50 | > 50 | > 50 | > 50 | > 50 | > 50
N#CC1=C(N)Oc2c(c3nc4ccccc4nc3c3ccccc23)C12C(=O)N(Cc1cnnn1-c1ccc(F)c(Cl)c1)c1ccccc12 (stereo unspecified) | > 50 | > 50 | > 50 | > 50 | > 50 | > 50
CCc1cccc(C)c1-n1nncc1CN1C(=O)C2(C(C#N)=C(N)Oc3c(N)cc4nc5ccccc5nc4c32)c2ccccc21 (stereo unspecified) | > 50 | > 50 | > 50 | > 50 | > 50 | > 50
N#CC1=C(N)Oc2c(N)cc3nc4ccccc4nc3c2C12C(=O)N(Cc1cnnn1-c1c(F)cccc1F)c1ccccc12 (stereo unspecified) | > 50 | > 50 | > 50 | > 50 | > 50 | > 50
COc1cc(-n2nncc2CN2C(=O)C3(C(C#N)=C(N)Oc4c(N)cc5nc6ccccc6nc5c43)c3ccccc32)c(OC)cc1Cl (stereo unspecified) | > 50 | > 50 | > 50 | > 50 | > 50 | > 50
N#CC1=C(N)Oc2c(c3nc4ccccc4nc3c3ccccc23)C12C(=O)N(Cc1cnnn1-c1ccc([N+](=O)[O-])cc1)c1ccccc12 (stereo unspecified) | > 50 | > 50 | > 50 | > 50 | > 50 | > 50
N#CC1=C(N)Oc2c(N)cc3nc4ccccc4nc3c2C12C(=O)N(Cc1cnnn1-c1ccc([N+](=O)[O-])cc1)c1ccccc12 (stereo unspecified) | > 50 | > 50 | > 50 | > 50 | > 50 | > 50

More lines, main results first:

IC50 (HepG2) [µM] | IC50 (A549) [µM] | IC50 (MCF7) [µM] | IC50 (HCT-116) [µM] | SMILES | IC50 (L02) [µM] | IC50 (HUVEC) [µM]
> 50 | > 50 | > 50 | 28.7 | N#CC1=C(N)Oc2c(N)cc3nc4ccccc4nc3c2C12C(=O)N(Cc1cnnn1-c1ccc(Cl)cc1[N+](=O)[O-])c1ccccc12 (stereo unspecified) | > 50 | > 50
48.1 | 12.7 | > 50 | > 50 | Cc1cc(C)c(-n2nncc2CN2C(=O)C3(C(C#N)=C(N)Oc4c(N)cc5nc6ccccc6nc5c43)c3ccccc32)c(C)c1 (stereo unspecified) | > 50 | > 50
17.3 | > 50 | 43.5 | 37.2 | Cc1ccc(Cl)cc1-n1nncc1CN1C(=O)C2(C(C#N)=C(N)Oc3c(N)cc4nc5ccccc5nc4c32)c2ccccc21 (stereo unspecified) | > 50 | > 50
> 50 | > 50 | > 50 | > 50 | COc1ccc(-n2nncc2CN2C(=O)C3(C(C#N)=C(N)Oc4c3c3nc5ccccc5nc3c3ccccc43)c3ccccc32)cc1 (stereo unspecified) | > 50 | > 50
17.9 | 24.6 | 24.6 | 10.3 | CCc1ccccc1-n1nncc1CN1C(=O)C2(C(C#N)=C(N)Oc3c(N)cc4nc5ccccc5nc4c32)c2ccccc21 (stereo unspecified) | 22.9 | > 50
> 50 | > 50 | > 50 | > 50 | CC(=O)Nc1ccc(-n2nncc2CN2C(=O)C3(C(C#N)=C(N)Oc4c(N)cc5nc6ccccc6nc5c43)c3ccccc32)cc1 (stereo unspecified) | > 50 | > 50
> 50 | > 50 | > 50 | > 50 | N#CC1=C(N)Oc2c(c3nc4ccccc4nc3c3ccccc23)C12C(=O)N(Cc1cnnn1-c1ccc(F)cc1)c1ccccc12 (stereo unspecified) | > 50 | > 50
> 50 | > 50 | > 50 | > 50 | Cc1ccc(-n2nncc2CN2C(=O)C3(C(C#N)=C(N)Oc4c(N)cc5nc6ccccc6nc5c43)c3ccccc32)cc1C (stereo unspecified) | > 50 | > 50
> 50 | > 50 | > 50 | > 50 | N#CC1=C(N)Oc2c(c3nc4ccccc4nc3c3ccccc23)C12C(=O)N(Cc1cnnn1-c1ccc(Cl)cc1)c1ccccc12 (stereo unspecified) | > 50 | > 50
> 50 | > 50 | > 50 | > 50 | Cc1ccc(C)c(-n2nncc2CN2C(=O)C3(C(C#N)=C(N)Oc4c3c3nc5ccccc5nc3c3ccccc43)c3ccccc32)c1 (stereo unspecified) | > 50 | > 50
> 50 | > 50 | > 50 | > 50 | Cc1ccccc1-n1nncc1CN1C(=O)C2(C(C#N)=C(N)Oc3c2c2nc4ccccc4nc2c2ccccc32)c2ccccc21 (stereo unspecified) | > 50 | > 50
> 50 | 12.3 | > 50 | > 50 | Cc1cccc(-n2nncc2CN2C(=O)C3(C(C#N)=C(N)Oc4c(N)cc5nc6ccccc6nc5c43)c3ccccc32)c1 (stereo unspecified) | > 50 | > 50
> 50 | > 50 | > 50 | > 50 | CC(=O)Nc1ccc(-n2nncc2CN2C(=O)C3(C(C#N)=C(N)Oc4c3c3nc5ccccc5nc3c3ccccc43)c3ccccc32)cc1 (stereo unspecified) | > 50 | > 50
> 50 | 37.5 | 28.9 | > 50 | COc1ccccc1-n1nncc1CN1C(=O)C2(C(C#N)=C(N)Oc3c(N)cc4nc5ccccc5nc4c32)c2ccccc21 (stereo unspecified) | > 50 | > 50
> 50 | > 50 | > 50 | > 50 | N#CC1=C(N)Oc2c(N)cc3nc4ccccc4nc3c2C12C(=O)N(Cc1cnnn1-c1ccc(F)cc1)c1ccccc12 (stereo unspecified) | > 50 | > 50
33.1 | 10.9 | 33.2 | > 50 | N#CC1=C(N)Oc2c(N)cc3nc4ccccc4nc3c2C12C(=O)N(Cc1cnnn1-c1cc(Cl)ccc1Cl)c1ccccc12 (stereo unspecified) | > 50 | > 50
45.1 | 28.1 | 28.1 | > 50 | COc1ccc(OC)c(-n2nncc2CN2C(=O)C3(C(C#N)=C(N)Oc4c(N)cc5nc6ccccc6nc5c43)c3ccccc32)c1 (stereo unspecified) | > 50 | > 50
33.5 | 29.8 | 34.4 | > 50 | N#CC1=C(N)Oc2c(N)cc3nc4ccccc4nc3c2C12C(=O)N(Cc1cnnn1-c1ccccc1Cl)c1ccccc12 (stereo unspecified) | > 50 | > 50
